{
  "source": "patent US4264736A",
  "about": "“Antibiotic 890A10” (Merck & Co., Inc., priority 1979, dated 1981)",
  "key": {"[1]": {"system": "Aerobacter aerogenes MB No. 835", "test": "Antibiotic spectrum profile, agar zone of inhibition", "format": "cell-based", "conditions": "Klebsiella aerogenes, MBNO.835, 0.015 ml of 9.5 μg/ml aqueous solution, 25° C., read-out: Inhib. Zone Diam.", "description": "(§1) The test to determine the antibiotic spectrum profiles of antibiotic 890A10 is carried out by application of a 0.015 ml. droplet of a 9.5 μg./ml. aqueous solution of the antibiotic on the surface of a 100×15 mm. petri plate containing 3 ml. of seeded nutrient agar plus 0.2% yeast extract which is incubated at 25° C."}, "[2]": {"system": "Bacillus sp. MB No. 633", "test": "Antibiotic spectrum profile, agar zone of inhibition", "format": "cell-based", "conditions": "0.015 ml of 9.5 μg/ml aqueous solution, 25° C., read-out: Inhib. Zone Diam.", "description": "as §1"}, "[3]": {"system": "Protcus vulgaris MB No. 1012", "test": "Antibiotic spectrum profile, agar zone of inhibition", "format": "cell-based", "conditions": "0.015 ml of 9.5 μg/ml aqueous solution, 25° C., read-out: Inhib. Zone Diam."}, "[4]": {"system": "Sarcina lutea ATCC 9341", "test": "Antibiotic spectrum profile, agar zone of inhibition", "format": "cell-based", "conditions": "Micrococcus luteus, ATCC9341, 0.015 ml of 9.5 μg/ml aqueous solution, 25° C., read-out: Inhib. Zone Diam."}, "[5]": {"system": "Staphylococcus aureus MB No. 698", "test": "Antibiotic spectrum profile, agar zone of inhibition", "format": "cell-based", "conditions": "MBNO.698, 0.015 ml of 9.5 μg/ml aqueous solution, 25° C., read-out: Inhib. Zone Diam."}, "[6]": {"system": "Streptococcus faecalis MB No. 753", "test": "Antibiotic spectrum profile, agar zone of inhibition", "format": "cell-based", "conditions": "Enterococcus faecalis, MBNO.753, 0.015 ml of 9.5 μg/ml aqueous solution, 25° C., read-out: Inhib. Zone Diam."}, "[7]": {"system": "Salmonella gallinarum MB No. 1287", "test": "Antibiotic spectrum profile, agar zone of inhibition", "format": "cell-based", "conditions": "Salmonella enterica, 0.015 ml of 9.5 μg/ml aqueous solution, 25° C., read-out: Inhib. Zone Diam."}, "[8]": {"system": "Proteus vulgaris ATCC 21100", "test": "Antibiotic spectrum profile, agar zone of inhibition", "format": "cell-based", "conditions": "ATCC21100, 0.015 ml of 9.5 μg/ml aqueous solution, 25° C., read-out: Inhib. Zone Diam."}, "[9]": {"system": "Escherichia coli MB No. 1418", "test": "Antibiotic spectrum profile, agar zone of inhibition", "format": "cell-based", "conditions": "MBNO.1418, 0.015 ml of 9.5 μg/ml aqueous solution, 25° C., read-out: Inhib. Zone Diam."}, "[10]": {"system": "Pseudomonas stutzeri ATCC 11607", "test": "Antibiotic spectrum profile, agar zone of inhibition", "format": "cell-based", "conditions": "Stutzerimonas stutzeri, ATCC11607, 0.015 ml of 9.5 μg/ml aqueous solution, 25° C., read-out: Inhib. Zone Diam."}, "[11]": {"system": "Klebsiella pneumoniae MB No. 1264", "test": "Antibiotic spectrum profile, agar zone of inhibition", "format": "cell-based", "conditions": "MBNO.1264, 0.015 ml of 9.5 μg/ml aqueous solution, 25° C., read-out: Inhib. Zone Diam."}, "[12]": {"system": "Erwinia atroseptica ATCC 4446", "test": "Antibiotic spectrum profile, agar zone of inhibition", "format": "cell-based", "conditions": "Pectobacterium atrosepticum, ATCC4446, 0.015 ml of 9.5 μg/ml aqueous solution, 25° C., read-out: Inhib. Zone Diam."}, "[13]": {"system": "Vibrio percolans MB No. 2566 (res. ceph C)", "test": "Antibiotic spectrum profile, agar zone of inhibition", "format": "cell-based", "conditions": "Comamonas terrigena, read-out: Inhib. Zone Diam."}, "[14]": {"system": "Proteus vulgaris MB No. 2112 (episome)", "test": "Antibiotic spectrum profile, agar zone of inhibition", "format": "cell-based", "conditions": "read-out: Inhib. Zone Diam."}, "[15]": {"system": "Proteus mirabilis MB No. 3126", "test": "Antibiotic spectrum profile, agar zone of inhibition", "format": "cell-based", "conditions": "MBNO.3126, 0.015 ml of 9.5 μg/ml aqueous solution, 25° C., read-out: Inhib. Zone Diam."}, "[16]": {"test": "Electrophoresis at neutral pH", "format": "physicochemical", "conditions": "50 volts/cm, 0.03 M potassium phosphate buffer, pH 7.1, 30 minutes", "description": "Antibiotic 890A10 is an acidic substance which migrates toward the positive pole on electrophoresis at neutral pH. At a gradient of 50 volts/cm. in 0.03 M potassium phosphate buffer, pH 7.1, the antibiotic moves 8.0 cm. in 30 minutes, compared with a movement of 4.0 cm. for 890A1. The disodium salt is a white or slightly yellow powder as lyophilized from aqueous solution. Under acidic conditions in aqueous solution, the antibiotic is unstable, and the free acid form has not been isolated."}, "[17]": {"test": "Stability in aqueous solution under acidic conditions", "format": "physicochemical", "conditions": "free acid form not isolated"}, "[18]": {"system": "various gram-positive and gram-negative bacteria", "test": "Antibacterial activity (statement)", "format": "cell-based"}, "[19]": {"system": "bacterial β-lactamases", "test": "Inhibition of bacterial β-lactamases (statement)", "format": "biochemical"}},
  "data": [
    {"smiles": "CC(=O)NCCSC1=C(C(=O)O)N2C(=O)C(C(C)OS(=O)(=O)O)C2C1", "note": "(stereo not shown) [Antibiotic 890A10]", "values": [
      {"measurement": "zone of inhibition at 9.5 µg/mL", "setting": "[1]", "value": 22, "unit": "mm"},
      {"measurement": "zone of inhibition at 9.5 µg/mL", "setting": "[2]", "value": 30, "unit": "mm"},
      {"measurement": "zone of inhibition at 9.5 µg/mL", "setting": "[3]", "value": 19, "unit": "mm"},
      {"measurement": "zone of inhibition at 9.5 µg/mL", "setting": "[4]", "value": 33, "unit": "mm"},
      {"measurement": "zone of inhibition at 9.5 µg/mL", "setting": "[5]", "value": 23, "unit": "mm"},
      {"measurement": "zone of inhibition at 9.5 µg/mL", "setting": "[6]", "value": 0, "unit": "mm"},
      {"measurement": "zone of inhibition at 9.5 µg/mL", "setting": "[7]", "value": 28, "unit": "mm"},
      {"measurement": "zone of inhibition at 9.5 µg/mL", "setting": "[8]", "value": 30, "unit": "mm"},
      {"measurement": "zone of inhibition at 9.5 µg/mL", "setting": "[9]", "value": 25, "unit": "mm"},
      {"measurement": "zone of inhibition at 9.5 µg/mL", "setting": "[10]", "value": 0, "unit": "mm"},
      {"measurement": "zone of inhibition at 9.5 µg/mL", "setting": "[11]", "value": 19, "unit": "mm"},
      {"measurement": "zone of inhibition at 9.5 µg/mL", "setting": "[12]", "value": 10, "unit": "mm"},
      {"measurement": "zone of inhibition at 9.5 µg/mL", "setting": "[13]", "value": 22, "unit": "mm"},
      {"measurement": "zone of inhibition at 9.5 µg/mL", "setting": "[14]", "value": 30, "unit": "mm"},
      {"measurement": "zone of inhibition at 9.5 µg/mL", "setting": "[15]", "value": 29, "unit": "mm"},
      {"measurement": "movement toward the positive pole on electrophoresis", "setting": "[16]", "value": 8.0, "unit": "cm"},
      {"measurement": "stability under acidic conditions in aqueous solution", "setting": "[17]", "value": "unstable"},
      {"measurement": "antibacterial activity", "setting": "[18]", "value": "active against various gram-positive and gram-negative bacteria"},
      {"measurement": "inhibition of bacterial β-lactamases", "setting": "[19]", "value": "potent inhibitor of bacterial β-lactamases"}
    ]}
  ]
}
